Molecules are shown by their SMILES.

Usually melting point stands for the temperature of the solid-liquid transition. Consider `CC1NC(=O)c2ccccc2O1` (centres undefined), for which the melting point lay in the range of 124 to 126 °C.

`CCN(Cc1ccccc1)C(=O)Cc1c(-c2ccc(Cl)cc2)nc2cc(C)ccn12` had a melting point of 192 to 193 °C. Next, `C=CC(=O)NC(C)(C)COc1ccc(Cl)cc1`: 95 to 96 °C. The value for `CCOC(=O)[C@H](Cc1ccc([N+](=O)[O-])cc1)NC(=O)c1ccccc1` was 99 to 101 °C. The value for `Oc1[nH]nc2c1-c1ccc(Cl)cc1CC2` was 232 to 233 °C; that for `CCOC(=O)c1ncn2c1c(=O)n(C)c1ccccc12` was 218 to 220 °C; that for `COc1cccc(C(=O)c2ccc(=O)n(Cc3ccc(Cl)cc3)c2)c1` was 104 °C. `CCOc1ccc(N2CCN(c3c(C)c4c(c(OC)c3C)OC(C)(C)C4)CC2)cc1` displayed a melting point of 152 to 154 °C. Next, `CCNC(=O)c1ccccc1-c1ccccc1`: 77 to 79 °C; `Cc1nc2c(s1)-c1nc(NC(=O)c3ccccc3)ncc1CC2`: 229 to 231 °C. Next, `CSc1nn2c(N)cc(N3CCN(C)CC3)nc2c1S(=O)(=O)c1ccccc1`: more than 230 °C; `CCCCCCOc1ccc(CCCCCCCCC(=O)N(C)O)cc1`: 59 to 61 °C; `O=C(Nc1cccc(CN2CCCCC2)c1)C1=Cc2cc(-c3ccccc3)ccc2CC1`: 152 to 153 °C. Next, `CCCn1c(=O)c(C(=O)OCC)c(O)c2ccc(C)nc21`: 128 to 130 °C; `CCCc1[nH]c2cc(C(N)=O)ccc2c1C(=O)C1CCCCC1`: 245 to 247 °C; `Cc1nc[nH]c1CSCCN=C(NC#N)NCCCc1c[nH]cn1`: 140 to 142 °C. `O=C(c1ccc(F)cc1)C1CCN(C2Sc3ccccc3NC2=O)CC1` (centres undefined) yielded a melting point of 218 °C. Next, `Cc1cccc2c1nc(COc1ccc(Cl)cc1)n2CCC(Cc1ccccc1)C(=O)O` (centres undefined): 190 to 192 °C; `O=C(O)Cc1c(C(=O)c2cc(CO)ccn2)[nH]c2cc(Cl)ccc12`: 210 to 212 °C; `CCCNC(=O)c1cccc(-c2cc(-c3ccccc3O)nc(NC(=O)c3cccs3)c2C#N)c1`: 245 to 246 °C.

On to `CC(C)(C)OC(=O)N1CCCC(c2ccc3c(c2)C2(CO3)C(=O)N(Cc3ccc(C(F)(F)F)o3)c3ccccc32)C1` (centres undefined), for which the melting point fell in the range of 59 to 61 °C. The value for `CCCCOc1ccc(S(=O)(=O)N2CCC(N(Cc3ccccc3)CC(O)COc3cccc4[nH]c5ccccc5c34)C2)cc1` (centres undefined) was 73 to 76 °C; that for `CCOC(=O)C1=C(C(=O)OCC)C(c2cccc([N+](=O)[O-])c2)C(C(=O)OCC)=C(CC)N1` (centres undefined) was 153 °C; that for `O=C(O)c1cc(NCc2ccc(Cl)cc2)ccc1O` was 227 to 228 °C. The value for `CCC12CCC3C4CCC(=O)C=C4CCC3C1CCC2O` (centres undefined) was 147 to 149 °C; that for `CCOC(=O)C=Cc1ccc2c(c1)CC(NC(=O)OC(C)(C)C)CC2` (centres undefined) was 99 to 100 °C.

In turn, `CC=CN(C=CC)c1ccc2[nH]c3cnc(-c4nc(CC)no4)cc3c2c1` returned a melting point of 151 to 156 °C. The value for `O=C(Nc1ccc(Br)cc1)Oc1ccc2c(c1)CCCN2` was 198 °C; that for `NC(=O)C1=NN(c2cccc(COc3ccccc3)c2)C(c2ccccc2F)N1` (centres undefined) was 176 to 178 °C.

In the case of `Cc1sc2c(Sc3ccccc3)c3ccccc3c(-c3cc(Br)c(O[C@H](C)C(=O)O)c(Br)c3)c2c1C`, the melting point is 237 to 239 °C. The value for `COC(=O)c1ccc(COC(C)=O)nc1C1=NC(C)(C(C)C)C(=O)N1C(C)=O` (centres undefined) was 111 to 112 °C; that for `O=C(O)Cc1nn(-c2ccccn2)c2[nH]c3ccccc3c(=O)c12` was 229 to 231 °C. On to `CCN(C)C(C)C(=O)Nc1cccc2c1C(=O)c1c(NC(=O)C(C)N(C)CC)cccc1C2=O` (centres undefined), for which the melting point is 129 to 130 °C. Next, `O=C(O)CCCCCCCCCCc1ccc(F)cc1F`: 56 °C. The value for `CC(=O)Oc1ccc2c(c1)OC(c1ccccc1)(c1ccccc1)O2` was 81.5 to 82.5 °C.

In turn, `CCN(CC)c1nc(N)c2ccccc2n1` had a melting point of 125 to 128 °C.

`CCCCC(C(=O)O)n1cncn1` (centres undefined) came in with a melting point of 141 to 143 °C.

For the compound `CN(c1ccc(Cl)cc1)S(=O)(=O)c1cccc(C(=O)Nc2ccc(Br)cc2F)c1`, the melting point is 126 to 127 °C. Next, `Cc1sc2c(c1C)C(c1ccc(Cl)cc1)=NC(N)c1nnc(C)n1-2` (centres undefined): 192 to 197 °C; `CN1c2ccc(-c3ccccc3)cc2S(=O)(=O)c2cc(-c3ccccc3)ccc21`: 242 to 245 °C; `CCn1c(=O)c2c(ncn2CCCCC(C)=O)n(CC)c1=O`: 68 to 69 °C.

Turning to `O=C(NOCC(O)CN1CCCCC1)NC1CCCCC1` (centres undefined), the melting point lay within 108 to 110 °C.

Compound `Cn1c(CO)c(-c2ccc(F)cc2)c2ccccc21` yielded a melting point of 99 to 104 °C. In the case of `NCC(O)COCCCCCCCCc1ccccc1` (centres undefined), the melting point lay in the range of 50 to 54 °C. Compound `CC12CC(O)C3=C4CCC(=O)C=C4CCC3C1C(O)CC2=O` (centres undefined) displayed a melting point of 146 °C. Next, `COc1ccc(Cn2c(=O)c3ccc4ccccc4c3c3c4ccccc4ccc32)cc1`: 229 °C; `COc1cc(-c2cnc3[nH]cc(C(=O)C(C)(C)OC)c3n2)cc(OC)c1OC`: 238 to 239 °C; `CCOC(=O)c1cc2cc(C=CC(=O)c3ccc(C)cc3)cc(C(C)CC)c2oc1=O` (centres undefined): 155 to 156 °C. Next, `CC(=O)OCC1OC(n2c(Cl)nc3cc(Cl)c(Cl)cc32)C(OC(C)=O)C1OC(C)=O` (centres undefined): 145 to 146 °C; `CC1(C)CC(c2ccc3ccccc3n2)c2cc(C#N)ccc2O1` (centres undefined): 174 to 176 °C; `NCCc1ccc(OCc2ccccc2)c(NC(N)=O)c1`: 176 to 180 °C. The value for `Cc1cc(C)c(/C=C2\C(=O)N(COC(=O)CCC(=O)O)c3ccccc32)[nH]1` was 160 to 163 °C; that for `CS(=O)(=O)c1cc(C(=O)N=C(N)N)ccc1C(F)(F)F` was 146 to 147 °C.

In turn, `O=c1ccc2c(F)cc(F)cc2[nH]1` returned a melting point of 292 to 318 °C. Compound `COc1cc(OC)cc(N2CCN(C(=O)Nc3nc4ccccc4nc3OC)CC2)c1` had a melting point of 140 to 141 °C. `O=C1C2=C(NCCC2)N(c2ccccc2)C2=NCCN12`: the melting point was in the range of 248 to 250 °C. The value for `O=[N+]([O-])c1ccc2[nH]cc(C3=CCNCC3F)c2c1` (centres undefined) was 205 to 207 °C; that for `Cc1coc(Cc2ccc(N)cc2)n1` was 84 to 85 °C. Next, `CCOC(=O)c1ccc2c(c1)c(C#Cc1ccccc1)nn2CCC#N`: 90 to 94 °C. The compound `CC(C)C(=O)c1ccc(N2CCN(C)CC2)cc1` yielded a melting point of 74 to 76 °C.

As to `O=C(O)c1ccc(COCc2csc3nc(C(=O)NCc4ccc(F)c(C(F)(F)F)c4)[nH]c(=O)c23)cc1`, the melting point lay within 258 to 259 °C. The value for `O=C(O)C1CCN(c2cc(-c3ccc(Cl)cc3)nc3ccccc23)CC1` was 245 to 247 °C; that for `N#Cc1cnc2ccsc2c1Oc1ccc(Cl)cc1Cl` was 158 to 160 °C. In turn, `COc1cccc(N(CC(=O)N(C)c2ccccc2)C(=O)CNC(=O)Nc2cccc(C)c2)c1` gave a melting point of 179 °C. The value for `Cc1cc(OCC(=O)O)c2c(c1C)-c1nc(SCCC(c3ccccc3)c3ccccc3)sc1C2` was 142 to 144 °C; that for `N#Cc1cc(-n2cccc2)cnc1Cl` was 144 to 146 °C.

On to `CC(C)Oc1ccc(-n2c(C(=O)NCC(=O)O)c(Cl)c3cc(Oc4ccc(C(F)(F)F)cc4)ccc32)cc1`, for which the melting point lay in the range of 94 to 96 °C. The value for `CCCCCCCCc1ccc(N(c2ccc(CCCCCCCC)cc2)C2(c3ccc(N(CC)CC)cc3)OC(=O)c3nccnc32)cc1` (centres undefined) was 180 to 181 °C; that for `Cc1cc2c3c(ccc2cc1Br)OC(=O)C3` was 238 to 240 °C; that for `Cc1c(SCCCN2CCN(Cc3ccc(Cl)s3)CC2)ccnc1CSc1nc2cc(F)ccc2[nH]1` was 116 to 119 °C. Turning to `CCOCCCn1ccc(=O)c(OC(=O)NCC(=O)OCC)c1C`, the melting point is 84 to 85 °C.

The compound `Cc1cccc(CCCCCCCCC(=O)Cl)c1` returned a melting point of 96 to 98 °C. The value for `CC(C)(C)c1cc(C(C)(C)C)c2oc(-c3cccc([N+](=O)[O-])c3O)nc2c1` was 148 to 150 °C; that for `CCCCNC(=O)[C@@H]1C[C@]2(NC(=O)N(CCCN3CCC(O)CC3)C2=O)c2cc(F)ccc2O1` was 86 to 88 °C; that for `CCCc1nc(CO)c[nH]1` was 95 to 101 °C. Next, `Cc1ccc(NC(=O)C(C)(C)C)c(-c2cccc(Br)n2)c1`: 120 to 126 °C. The value for `O=C1NCC(CCOC(=O)c2ccccc2)(c2ccc(F)c(F)c2)O1` (centres undefined) was 147 °C. In turn, `Cn1c2ccccc2c2c(=O)[nH]ccc21` yielded a melting point of 242 °C. Next, `Cc1cccc(-c2nc3ccc(Cl)nn3c2-c2ccnc(Nc3ccc(F)cc3C)c2)c1`: 191 to 192 °C. Next, `CC(C)N1C(=O)c2ccccc2N(C(=O)C(C)(C)C)S1(=O)=O`: 97.5 to 99.5 °C; `CS(=O)(=O)N1CCCn2c(nc3c(N)nc4cc(Br)ccc4c32)C1`: 303 °C; `NP(N)(=O)c1ccccc1`: 187 to 191 °C. The compound `Fc1cccc(OC2CN(C3CCC(c4c[nH]c5cc(F)ccc45)CC3)C2)c1` (centres undefined) had a melting point of 117 to 123 °C. The value for `CC(=O)c1cc2c(s1)Oc1ccccc1N=C2N1CCN(C)CC1` was 143 to 144 °C; that for `CS(=O)(=O)N(CCc1ccc(Cl)cc1)Cc1ccncc1` was 96 to 99 °C.

`COC(=O)c1c(C(=O)OC)c2n(c1C)-c1ccccc1C2` showed a melting point of 162 to 164 °C. Next, `CCc1nnc2c(Nc3ccccc3)nc3ccccc3n12`: 172 to 174 °C; `NC(=O)c1ccc(-c2cnc3[nH]c(=O)n(CC4CCCCC4)c3n2)cc1`: 293 to 295 °C; `CCOC(=O)c1c(C)nn(C)c1CS(=O)(=O)NC(=O)Nc1nc(OC)cc(OC)n1`: 190 °C.

For the origin of these results see a melting point compilation (Tetko et al.; mined from patent text by program, amines drawn as free bases though some values may be those of a salt).
